This is an account of results in patent US10758609B2, “Cross-reactive T-cell epitopes of HIV, SIV, and FIV for vaccines in humans and cats” (priority 2015, dated 2020).

The test system of test [1] is PBMC from FIV-vaccinated cats. Description: Feline IFNγ ELISpot of PBMC from vaccinated cats. The class given is cell-based, cat. The following applies: for IFNγ response rate: MAP Trial 2; for IFNγ production: pilot study, pre-challenge. The method, then:
IFNγ and IL2 ELISpot analyses were performed using feline IFNγ ELISpot and feline IL2 ELISpot kits (R&D Systems, Cat# SEL764 and SEL1890) as described. The threshold is defined as ≥50 spot forming units (SFU) per 1×10^6 PBMC when counted with MVS ELISpot Reader (MVS Pacific, LLC). Each result is an average of the duplicate samples after subtraction of the average value of the media controls.
Concurrently, the overlapping peptide pools of FIV structural/enzyme proteins were used to stimulate PBMC and T cells from FIV-vaccinated cats. These cats were vaccinated with prototype dual-subtype FIV vaccine which was the prototype to our commercial FIV vaccine (Coleman et al., 2014). The feline assays (Example 1) equivalent to those of human assays (Sanou et al., 2013; Roff et al., 2015) were used except for ICS analysis. In place of ICS for cytolysin/cytotoxins, IL2 ELISpot analysis was performed. […] The results for FIV-vaccinated cats included IFNγ and IL2 productions and CD3^+CD4+ and CD3^+CD8^+ T-cell proliferation (Table 9, the second set of results).
The feline IFNγ and L2 ELISpot analyses of PBMC to FIV MAPs and peptides were performed as previously described (Abbott et al. (2012)) using feline IFNγ modular kit (R&D Systems, Minneapolis, Minn.) and feline IL2 modular kit (R&D Systems). All results shown in the figures (FIGS. 8A-1, 8B-1, 8A-2, 8B-2, 8A-3, 8B-3) are after subtracting the average value of the results from all control cats.
The second parameter evaluated was the ability of the peripheral blood mononuclear cells (PBMC) from vaccinated and control cats to produce IL2 and interferon-γ (IFNγ) proteins in responses to FIV MAPs and peptides (FIGS. 8A-1, 8A-2, 8A-3, 8B-1, 8B-2, 8B-3) using feline IL2 and IFNγ ELISpot assays (Aranyos et al. (2016); Abbott et al. (2012)). IL2 enhances the proliferation of FIV-specific CD4^+ T cells and CD8^+ T cells. IFNγ is known enhance the FIV-specific CTL activities in vaccinated cats (Abbas et al. (2015)).

Test [2] concerns CD3^+CD4^+ T cells from HIV^+ subjects. Description: CFSE-based CD3+CD4+ T-cell proliferation, HIV+ human subjects. The note with it: for CD4, frequency of responders: FIV epitope peptide; for CDC4^+ T (T-cell proliferation), frequency of responders: FIV peptides. The method, then:
The overlapping peptide pools of FIV and HIV-1 structural and enzyme proteins were used to stimulate the […] (PBMC) and the T cells from HIV^+ subjects as previously described for epitope mapping of HIV-1 and FIV p24 and reverse transcriptase (RT) (Sanou et al., 2013; Roff et al., 2015). The individual peptides in those peptide pools with positive responses to either interferon-γ (IFNγ) production and/or T-cell proliferation were determined with IFNγ ELISpot analysis and CFSE-based CD3^+CD4^+ and CD3^+CD8^+ T-cell proliferation analyses followed by the FACS-based intracellular staining (ICS) for cytolysin (perforin) and cytotoxin (granzyme A [GrzA] and GrzB) (Sanou et al., 2013; Roff et al., 2015). Besides viral p24 and RT proteins, the identical approach was used to identify anti-HIV/FIV T-cell epitopes on viral matrix (MA), nucleocapsid (NC), protease (PR), RNAase, integrase (IN), surface envelope (SU Env), and transmembrane envelope (TM Env) (FIG. 12).
Since our goal is to develop HIV vaccine for human use, the HIV peptides (Table 10) counterpart of the cross-reactive FIV peptides shown in Table 9 were tested with PBMC and T cells from HIV^+ subjects. The immune functions analyzed were human IFNγ production by ELISpot, cytolysin/cytotoxin production by ICS, and CFSE-based proliferation of CD3^+CD4^+ and CD3^+CD8^+ T cells from HIV^+ subjects (Table 10, the first set of results). In addition, the Los Alamos National Laboratories (LANL) database was used to identify the HLA allele(s) of the HIV epitope sequence with CTL activity that can exist within the sequence of the conserved counterpart HIV peptide (Table 9, LANL CTL). The bold HLA class-I supertypes and the bold 2-digit alleles are those on the “Optimal CD8^+ CTL Epitopes” list and those without bold are alleles for potential CTL epitope. […] The HLA class II such as HLA-DRB1 has yet to be fully classified into supertypes, and therefore the 4-digit resolution nomenclatures for the HLA-DRB1 alleles are shown.
The threshold for positive IFNγ and IL2 ELISpot responses is ≥50 spot-forming units (SFU) per 10^6 PBMC. The threshold for CFSE-based CD4^+ and CD8^+ T-cell proliferation is ≥2% CD4^+ T-cell CFSE^low or CD8^+ T-cell CFSE^low. The threshold of FACS-based intracellular cytokine staining (ICS) is ≥0.2%. […] The nine FIV peptides in black were used in the current MAP vaccine trial, whereas the 13 peptides in blue were not used. […] The MAPs and their corresponding peptide(s) were also tested for their ability to enhance or suppress in vitro FIV infection of feline PBMC (E/S of peptides and E/S of MAP).
The counterpart HIV-1 peptides of the FIV peptides were also tested for immunogenicity using PBMC and T cells from HIV^+ human subjects. […] The HRT7-1 and HRT7-2 were also tested with cells from HIV^+ subjects on ART. The threshold for positive IFNγ ELISpot response is ≥75 spot-forming units (SFU) per 10^6 PBMC. The threshold for CFSE-based CD4^+ (CD4^+ T) and CD8^+ (CD8^+ T) T-cell proliferation is ≥2% CD4^+ T-cell CFSE^low or CD8^+ T-cell CFSE^low. The threshold of intracellular cytokine staining (ICS) of FACS-based cytolysin (perforin) and cytotoxins (granzymes A and B) in CD4^+ T cells (CyCD4) and CD8^+ T cells (CyCD8) is ≥0.2%. […] The nine HIV-1 peptides in black are the counterpart FIV peptides used in the current MAP vaccine trial, whereas the 13 peptides in blue were not.

[3] abbreviates: FIV epitope peptide, FIV-vaccinated cats.
Where [4] appears, read: FIV peptides, FIV-vaccinated cats (prototype dual-subtype vaccine).

As for LLLILCLPTLVDCIRN [FTM8(20)], the “IFNγ, frequency of responders” value in test [1] (setting [3]) is “++ (26%-40% (++))”; in test [1] (setting [4]), “++ (25.1%-40% (++))”. Moreover, in test [2], the “CD4, frequency of responders” value was “++ (26%-40% (++))”. Besides, the “CDC4^+ T (T-cell proliferation), frequency of responders” value (from here on “CDC4^+ T (T-cell proliferation)”) in test [2] is given as “++ (25.1%-40% (++))”.
On to KFLYTAFAMQELR [FTM4-3], for which the “IFNγ, frequency of responders” value in test [1] (setting [3]) is “++++ (>54% (++++))”. Also, the “IFNγ, frequency of responders” value in test [1] (setting [4]) is listed as “++++ (>54% (++++))”. Besides, in test [2], the “CD4, frequency of responders” value is recorded as “— (0%-1.4% (—))” and the “CDC4^+ T (T-cell proliferation)” value was “— (0%-1.4%(—))”.
Turning to WRMLIDFRVLNKL [FRT3-4], the “IFNγ, frequency of responders” value in test [1] (setting [3]) was “++ (26%-40% (++))”; in test [1] (setting [4]), “++ (25.1%-40% (++))”. The IFNγ response rate is on record as 64.3% in test [1] (6 weeks post-3rd vaccination); 14.3% in test [1] (SQ and ID MAP-vaccinated cats, 6 weeks post-2nd vaccination). The “CD4, frequency of responders” value in test [2] was “— (0%-1.4% (—))”. Also, the “CDC4^+ T (T-cell proliferation)” value in test [2] is given as “— (0%-1.4%(—))”.
Consider PTDMATLIMAAPGCA [Fp4-3], for which the “IFNγ, frequency of responders” value in test [1] (setting [3]) is given as “++ (26%-40% (++))”; in test [1] (setting [4]) it was “++ (25.1%-40% (++))”. Besides, the figures for the IFNγ production in test [1] (cat OCA) and in test [1] (cat SBA) were 161 SFU and 60 SFU, respectively. Further, the “CD4, frequency of responders” value in test [2] is on record as “— (0%-1.4% (—))”. Moreover, the “CDC4^+ T (T-cell proliferation)” value in test [2] was “— (0%-1.4%(—))”.
As for KKKSGKWRMLIDFRV [FRT3-3], the “IFNγ, frequency of responders” value in test [1] (setting [4]) is “± (1.5%-12.4% (±))”. In addition, in test [2], the “CD4, frequency of responders” value is “— (0%-1.4% (—))” and the “CDC4^+ T (T-cell proliferation)” value is listed as “— (0%-1.4%(—))”.
As to AGLRQSLEQYQVVKQ [FSU4], the “IFNγ, frequency of responders” value in test [1] (setting [3]) was “+++ (41%-54% (+++))”. In addition, in test [1] (setting [4]), the “IFNγ, frequency of responders” value is “+++ (40.1%-54% (+++))”. Also, in test [2], the “CD4, frequency of responders” value is given as “— (0%-1.4% (—))” and the “CDC4^+ T (T-cell proliferation)” value is “— (0%-1.4%(—))”.
